{"source": "ChEMBL document CHEMBL5696441", "about": "(Nat Chem Biol, 2011)", "key": {"[1]": {"molecular_target": "Protein kinase C theta type (Homo sapiens) (UniProt Q04759)", "test": "Inhibition of PRKCQ (unknown origin) assessed as remaining activity at 1 uM by Kinome scan method relative to control"}, "[2]": {"molecular_target": "Mitogen-activated protein kinase kinase kinase 2 (Homo sapiens) (UniProt Q9Y2U5)", "sequence (Q9Y2U5 whole entry)": "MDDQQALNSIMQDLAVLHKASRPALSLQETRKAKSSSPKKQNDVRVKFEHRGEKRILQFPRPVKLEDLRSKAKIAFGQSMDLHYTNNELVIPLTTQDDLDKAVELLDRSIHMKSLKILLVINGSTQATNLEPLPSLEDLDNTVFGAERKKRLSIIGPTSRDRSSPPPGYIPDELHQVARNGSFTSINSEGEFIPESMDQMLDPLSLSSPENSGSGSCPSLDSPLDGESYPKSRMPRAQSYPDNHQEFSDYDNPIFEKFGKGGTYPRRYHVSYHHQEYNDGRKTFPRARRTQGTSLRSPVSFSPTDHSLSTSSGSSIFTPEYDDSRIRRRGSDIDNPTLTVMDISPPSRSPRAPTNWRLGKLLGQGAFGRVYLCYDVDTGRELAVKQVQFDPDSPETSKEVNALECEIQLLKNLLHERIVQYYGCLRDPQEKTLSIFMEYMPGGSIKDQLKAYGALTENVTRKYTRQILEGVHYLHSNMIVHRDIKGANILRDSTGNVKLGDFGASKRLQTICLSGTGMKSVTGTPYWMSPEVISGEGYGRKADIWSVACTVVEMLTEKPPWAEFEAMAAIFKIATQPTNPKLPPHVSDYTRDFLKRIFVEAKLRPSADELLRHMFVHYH", "test": "Inhibition of MAP3K2 (unknown origin) assessed as remaining activity at 1 uM by Kinome scan method relative to control"}, "[3]": {"molecular_target": "Tyrosine-protein kinase CSK (Homo sapiens) (UniProt P41240)", "sequence (P41240 2-450 limits assumed)": "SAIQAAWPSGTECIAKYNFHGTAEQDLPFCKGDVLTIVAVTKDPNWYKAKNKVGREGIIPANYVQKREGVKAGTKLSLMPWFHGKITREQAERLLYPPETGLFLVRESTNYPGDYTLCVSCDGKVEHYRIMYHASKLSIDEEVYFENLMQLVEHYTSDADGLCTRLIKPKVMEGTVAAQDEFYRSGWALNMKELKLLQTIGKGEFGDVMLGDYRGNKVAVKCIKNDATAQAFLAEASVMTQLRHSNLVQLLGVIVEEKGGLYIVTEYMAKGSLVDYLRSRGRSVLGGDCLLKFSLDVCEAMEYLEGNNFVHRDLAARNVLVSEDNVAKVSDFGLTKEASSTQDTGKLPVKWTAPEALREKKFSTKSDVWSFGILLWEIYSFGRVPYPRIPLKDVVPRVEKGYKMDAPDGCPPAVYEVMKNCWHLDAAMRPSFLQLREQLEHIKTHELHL", "test": "Inhibition of CSK (unknown origin) assessed as remaining activity at 1 uM by Kinome scan method relative to control"}, "[4]": {"molecular_target": "MAP kinase-interacting serine/threonine-protein kinase 1 (Homo sapiens) (UniProt Q9BUB5)", "test": "Inhibition of human MKNK1 assessed as residual activity at 1 uM using RB-S6P as substrate in presence of 33P-ATP by ProQinase assay relative to control"}, "[5]": {"molecular_target": "Insulin-like growth factor 1 receptor (Homo sapiens) (UniProt P08069)", "sequence (P08069 31-736 limits assumed)": "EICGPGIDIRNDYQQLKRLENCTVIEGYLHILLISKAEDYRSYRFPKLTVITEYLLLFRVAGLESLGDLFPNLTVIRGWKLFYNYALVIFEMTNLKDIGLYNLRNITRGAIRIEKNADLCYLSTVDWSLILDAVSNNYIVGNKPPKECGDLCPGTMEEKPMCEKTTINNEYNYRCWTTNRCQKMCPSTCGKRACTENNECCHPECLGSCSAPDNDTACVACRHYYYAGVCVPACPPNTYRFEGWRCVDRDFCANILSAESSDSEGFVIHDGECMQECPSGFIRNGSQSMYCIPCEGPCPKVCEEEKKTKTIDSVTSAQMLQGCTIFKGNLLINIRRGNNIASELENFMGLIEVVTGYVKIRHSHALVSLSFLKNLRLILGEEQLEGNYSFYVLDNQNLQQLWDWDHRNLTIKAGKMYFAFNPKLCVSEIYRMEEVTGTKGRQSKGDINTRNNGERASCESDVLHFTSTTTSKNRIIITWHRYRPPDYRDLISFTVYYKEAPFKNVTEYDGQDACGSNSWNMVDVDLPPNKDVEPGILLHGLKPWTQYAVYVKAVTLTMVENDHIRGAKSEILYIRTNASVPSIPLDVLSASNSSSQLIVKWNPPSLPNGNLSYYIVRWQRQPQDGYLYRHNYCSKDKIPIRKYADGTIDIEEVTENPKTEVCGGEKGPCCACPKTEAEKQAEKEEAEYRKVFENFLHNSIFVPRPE", "sequence (P08069 741-1367 limits assumed)": "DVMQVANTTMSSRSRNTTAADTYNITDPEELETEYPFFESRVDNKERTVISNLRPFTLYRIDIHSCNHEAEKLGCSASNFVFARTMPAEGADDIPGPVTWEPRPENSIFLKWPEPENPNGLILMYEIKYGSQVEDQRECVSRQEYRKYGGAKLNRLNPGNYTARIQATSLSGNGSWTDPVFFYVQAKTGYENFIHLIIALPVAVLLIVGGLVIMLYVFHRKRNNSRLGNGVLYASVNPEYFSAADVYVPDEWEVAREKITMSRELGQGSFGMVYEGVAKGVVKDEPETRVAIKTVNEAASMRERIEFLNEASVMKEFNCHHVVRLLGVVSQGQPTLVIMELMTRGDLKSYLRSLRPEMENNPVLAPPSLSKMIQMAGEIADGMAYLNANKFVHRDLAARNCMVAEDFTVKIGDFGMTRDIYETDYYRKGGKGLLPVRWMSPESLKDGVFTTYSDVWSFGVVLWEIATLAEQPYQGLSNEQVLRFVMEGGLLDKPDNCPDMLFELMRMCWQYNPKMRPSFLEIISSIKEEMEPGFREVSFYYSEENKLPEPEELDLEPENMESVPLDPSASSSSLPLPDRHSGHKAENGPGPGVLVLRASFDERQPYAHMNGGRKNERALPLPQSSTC", "test": "Inhibition of IGF1R (unknown origin) assessed as remaining activity at 1 uM by Kinome scan method relative to control"}, "[6]": {"molecular_target": "Calcium/calmodulin-dependent protein kinase kinase 2 (Homo sapiens) (UniProt Q96RR4)", "test": "Inhibition of CAMKK2 (unknown origin) assessed as remaining activity at 1 uM by Kinome scan method relative to control"}, "[7]": {"molecular_target": "Serine/threonine-protein kinase MRCK beta (Homo sapiens) (UniProt Q9Y5S2)", "test": "Inhibition of human CDC42BPB assessed as residual activity at 1 uM using RB-S6P as substrate in presence of 33P-ATP by ProQinase assay relative to control"}, "[8]": {"molecular_target": "Serine/threonine-protein kinase PAK 1 (Homo sapiens) (UniProt Q13153)", "test": "Inhibition of human PAK1 assessed as residual activity at 1 uM using bio-4xCHKT as substrate in presence of 33P-ATP by ProQinase assay relative to control"}, "[9]": {"molecular_target": "Dual specificity protein kinase TTK (Homo sapiens) (UniProt P33981)", "test": "Inhibition of TTK (unknown origin) assessed as remaining activity at 1 uM by Kinome scan method relative to control"}, "[10]": {"molecular_target": "Serine/threonine-protein kinase Nek6 (Homo sapiens) (UniProt Q9HC98)", "test": "Inhibition of human NEK6 assessed as residual activity at 1 uM using RBER-GSK3 as substrate in presence of 33P-ATP by ProQinase assay relative to control"}, "[11]": {"molecular_target": "NUAK family SNF1-like kinase 2 (Homo sapiens) (UniProt Q9H093)", "test": "Inhibition of human SNARK assessed as residual activity at 1 uM using histone H2B as substrate in presence of 33P-ATP by ProQinase assay relative to control"}, "[12]": {"molecular_target": "Vascular endothelial growth factor receptor 3 (Homo sapiens) (UniProt P35916)", "test": "Inhibition of FLT4 (unknown origin) assessed as remaining activity at 1 uM by Kinome scan method relative to control"}, "[13]": {"molecular_target": "Dual specificity protein kinase CLK3 (Homo sapiens) (UniProt P49761)", "sequence (P49761 whole entry, looked up)": "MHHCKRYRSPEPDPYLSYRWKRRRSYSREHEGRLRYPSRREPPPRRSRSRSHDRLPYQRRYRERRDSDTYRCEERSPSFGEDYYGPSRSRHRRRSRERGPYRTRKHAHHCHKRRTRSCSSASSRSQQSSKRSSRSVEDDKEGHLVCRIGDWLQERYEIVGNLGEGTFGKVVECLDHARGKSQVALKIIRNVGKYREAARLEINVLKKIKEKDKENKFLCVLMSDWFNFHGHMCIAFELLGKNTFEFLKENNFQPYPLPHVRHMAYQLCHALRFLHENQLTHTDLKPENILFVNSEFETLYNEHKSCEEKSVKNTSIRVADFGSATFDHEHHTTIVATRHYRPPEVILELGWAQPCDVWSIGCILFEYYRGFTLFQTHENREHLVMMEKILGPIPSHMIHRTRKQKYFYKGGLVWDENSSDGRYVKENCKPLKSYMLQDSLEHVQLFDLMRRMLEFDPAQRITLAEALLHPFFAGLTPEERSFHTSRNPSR", "test": "Inhibition of CLK3 (unknown origin) assessed as remaining activity at 1 uM by Kinome scan method relative to control"}, "[14]": {"molecular_target": "Serine/threonine-protein kinase PAK 2 (Homo sapiens) (UniProt Q13177)", "sequence (Q13177 whole entry)": "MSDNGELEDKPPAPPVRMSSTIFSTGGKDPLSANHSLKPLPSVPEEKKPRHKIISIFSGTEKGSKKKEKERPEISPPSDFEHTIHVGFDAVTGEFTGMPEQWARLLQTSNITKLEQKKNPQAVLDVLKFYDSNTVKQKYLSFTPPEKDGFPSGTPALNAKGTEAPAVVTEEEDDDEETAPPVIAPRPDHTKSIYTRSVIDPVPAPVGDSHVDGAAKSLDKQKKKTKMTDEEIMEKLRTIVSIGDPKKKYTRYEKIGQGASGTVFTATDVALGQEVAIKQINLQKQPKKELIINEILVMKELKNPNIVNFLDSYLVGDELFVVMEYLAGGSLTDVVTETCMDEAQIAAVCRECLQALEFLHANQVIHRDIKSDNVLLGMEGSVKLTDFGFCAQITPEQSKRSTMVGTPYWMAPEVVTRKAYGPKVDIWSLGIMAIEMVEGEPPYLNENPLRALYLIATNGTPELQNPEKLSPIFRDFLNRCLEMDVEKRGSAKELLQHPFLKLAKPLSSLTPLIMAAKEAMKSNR", "test": "Inhibition of PAK2 (unknown origin) assessed as remaining activity at 1 uM by Kinome scan method relative to control"}, "[15]": {"molecular_target": "Mitogen-activated protein kinase 14 (Homo sapiens) (UniProt Q16539)", "test": "Inhibition of human p38alpha assessed as residual activity at 1 uM using ATF2 as substrate in presence of 33P-ATP by ProQinase assay relative to control"}, "[16]": {"molecular_target": "Fibroblast growth factor receptor 4 (Homo sapiens) (UniProt P22455)", "test": "Inhibition of human FGFR4 assessed as residual activity at 1 uM using polyEy as substrate in presence of 33P-ATP by ProQinase assay relative to control"}, "[17]": {"test_system": "PBMC", "test": "Anti-inflammatory activity against human derived high respond PBMC cells assessed as increase in stimulated IL-12p70 cytokine release at 1 uM incubated for 2 hrs in the presence of LPS/SEB/aCD28 by Luminex based sandwich immunoassay", "type": "functional, cell-based"}, "[18]": {"molecular_target": "Serine/threonine-protein kinase TBK1 (Homo sapiens) (UniProt Q9UHD2)", "test": "Inhibition of TBK1 (unknown origin) assessed as remaining activity at 1 uM by Kinome scan method relative to control"}, "[19]": {"molecular_target": "Cyclin-dependent kinase 1/cyclin B1 (Homo sapiens) (UniProt P06493+P14635)", "test": "Inhibition of human CDK1/CycB1 assessed as residual activity at 1 uM using RBER-CHKtide as substrate in presence of 33P-ATP by ProQinase assay relative to control", "type": "protein-complex assay"}, "[20]": {"test": "Anti-inflammatory activity against human derived high respond PBMC cells assessed as inhibition in stimulated IL-1ra cytokine release incubated for 2 hrs in the presence of LPS/SEB/aCD28 by Luminex based sandwich immunoassay", "type": "functional, cell-based"}, "[21]": {"molecular_target": "Mitogen-activated protein kinase 11 (Homo sapiens) (UniProt Q15759)", "test": "Inhibition of human P38beta assessed as residual activity at 1 uM using ATF2 as substrate in presence of 33P-ATP by ProQinase assay relative to control"}, "[22]": {"test_system": "PBMC", "test": "Anti-inflammatory activity against human derived medium respond PBMC cells assessed as increase in stimulated IL-12p70 cytokine release at 1 uM incubated for 2 hrs in the presence of LPS/SEB/aCD28 by Luminex based sandwich immunoassay", "type": "functional, cell-based"}, "[23]": {"molecular_target": "STE20-like serine/threonine-protein kinase (Homo sapiens) (UniProt Q9H2G2)", "test": "Inhibition of SLK (unknown origin) assessed as remaining activity at 1 uM by Kinome scan method relative to control"}, "[24]": {"test": "Anti-inflammatory activity against human derived high respond PBMC cells assessed as inhibition in stimulated IL-5 cytokine release at 10 uM incubated for 2 hrs in the presence of LPS/SEB/aCD28 by Luminex based sandwich immunoassay relative to control", "type": "functional"}, "[25]": {"molecular_target": "Calcium/calmodulin-dependent protein kinase kinase 1 (Homo sapiens) (UniProt Q8N5S9)", "sequence (Q8N5S9 whole entry, looked up)": "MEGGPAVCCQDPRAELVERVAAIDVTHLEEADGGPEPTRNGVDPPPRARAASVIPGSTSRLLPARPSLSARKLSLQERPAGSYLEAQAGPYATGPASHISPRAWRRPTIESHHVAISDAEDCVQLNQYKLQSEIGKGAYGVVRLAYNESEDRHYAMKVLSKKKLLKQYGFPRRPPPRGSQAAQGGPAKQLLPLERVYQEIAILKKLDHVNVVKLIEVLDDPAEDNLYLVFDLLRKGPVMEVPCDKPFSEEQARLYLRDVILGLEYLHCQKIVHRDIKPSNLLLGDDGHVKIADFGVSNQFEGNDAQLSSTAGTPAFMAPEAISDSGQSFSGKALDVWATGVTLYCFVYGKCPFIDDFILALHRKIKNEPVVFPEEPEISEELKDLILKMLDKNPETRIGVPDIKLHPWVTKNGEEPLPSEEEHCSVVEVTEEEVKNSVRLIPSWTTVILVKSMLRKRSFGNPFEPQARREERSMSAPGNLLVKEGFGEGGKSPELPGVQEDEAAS", "test": "Inhibition of CAMKK1 (unknown origin) assessed as remaining activity at 1 uM by Kinome scan method relative to control"}, "[26]": {"molecular_target": "Mast/stem cell growth factor receptor Kit (Homo sapiens) (UniProt P10721)", "test": "Inhibition of KIT (unknown origin) assessed as remaining activity at 1 uM by Kinome scan method relative to control"}, "[27]": {"molecular_target": "Serine/threonine-protein kinase N1 (Homo sapiens) (UniProt Q16512)", "sequence (Q16512 2-942 limits assumed)": "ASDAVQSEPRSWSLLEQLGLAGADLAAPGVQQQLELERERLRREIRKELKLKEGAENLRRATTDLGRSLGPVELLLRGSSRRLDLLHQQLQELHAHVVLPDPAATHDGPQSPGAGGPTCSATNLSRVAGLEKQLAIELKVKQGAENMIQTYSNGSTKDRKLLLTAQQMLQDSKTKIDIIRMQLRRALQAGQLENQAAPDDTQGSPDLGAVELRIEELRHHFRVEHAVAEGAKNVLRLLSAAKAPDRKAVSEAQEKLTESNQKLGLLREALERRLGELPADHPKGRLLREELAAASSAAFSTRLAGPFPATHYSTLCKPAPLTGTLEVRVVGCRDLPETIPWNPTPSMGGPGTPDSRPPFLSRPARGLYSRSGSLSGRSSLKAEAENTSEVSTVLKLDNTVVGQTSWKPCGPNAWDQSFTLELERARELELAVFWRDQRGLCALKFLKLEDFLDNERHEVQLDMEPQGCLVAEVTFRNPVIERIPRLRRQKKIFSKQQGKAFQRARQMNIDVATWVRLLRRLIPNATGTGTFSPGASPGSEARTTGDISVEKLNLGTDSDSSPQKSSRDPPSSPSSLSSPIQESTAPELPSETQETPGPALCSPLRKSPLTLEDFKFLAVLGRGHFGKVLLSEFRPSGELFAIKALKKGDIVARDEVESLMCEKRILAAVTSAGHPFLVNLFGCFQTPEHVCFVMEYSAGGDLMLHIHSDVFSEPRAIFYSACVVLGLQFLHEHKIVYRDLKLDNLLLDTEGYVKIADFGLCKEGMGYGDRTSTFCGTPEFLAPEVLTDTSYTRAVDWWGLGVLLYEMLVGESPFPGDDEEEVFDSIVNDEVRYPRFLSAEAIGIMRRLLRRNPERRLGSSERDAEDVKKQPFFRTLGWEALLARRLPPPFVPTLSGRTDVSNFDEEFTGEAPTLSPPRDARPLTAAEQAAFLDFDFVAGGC", "test": "Inhibition of human PRK1 assessed as residual activity at 1 uM using RBER-CHKtide as substrate in presence of 33P-ATP by ProQinase assay relative to control"}, "[28]": {"test_system": "Epidermal growth factor receptor (Homo sapiens), P00533 [UNDEFINED MUTATION]", "test": "Inhibition of human EGFR d746-750 mutant assessed as residual activity at 1 uM using PolyEY as substrate in presence of 33P-ATP by ProQinase assay relative to control"}, "[29]": {"test_system": "Epidermal growth factor receptor (Homo sapiens), P00533 [L858R]", "test": "Inhibition of human EGFR L858R mutant assessed as residual activity at 1 uM using PolyEY as substrate in presence of 33P-ATP by ProQinase assay relative to control"}}, "note": "Active and inactive are the calls of the source. The calls are words filed in the database; no cut-off is given here."}
{"compound": "O=C1c2ccc(Nc3ccc(F)cc3F)cc2CCc2ccc(OC[C@H](O)CO)cc21", "note": "[Skepinone-L]", "values": [{"measurement": "Activity", "setting": "[1]", "result": 83, "unit": "%"}, {"measurement": "Activity", "setting": "[2]", "result": 100, "unit": "%"}, {"measurement": "Activity", "setting": "[3]", "result": 100, "unit": "%"}, {"measurement": "Activity", "setting": "[4]", "result": 69, "unit": "%"}, {"measurement": "Activity", "setting": "[5]", "result": 91, "unit": "%"}, {"measurement": "Activity", "setting": "[6]", "result": 98, "unit": "%"}, {"measurement": "Activity", "setting": "[7]", "result": 83, "unit": "%"}, {"measurement": "Activity", "setting": "[8]", "result": 100, "unit": "%"}, {"measurement": "Activity", "setting": "[9]", "result": 100, "unit": "%"}, {"measurement": "Activity", "setting": "[10]", "result": 97, "unit": "%"}, {"measurement": "Activity", "setting": "[11]", "result": 115, "unit": "%"}, {"measurement": "Activity", "setting": "[12]", "result": 97, "unit": "%"}, {"measurement": "Activity", "setting": "[13]", "result": 96, "unit": "%"}, {"measurement": "Activity", "setting": "[14]", "result": 100, "unit": "%"}, {"measurement": "Activity", "setting": "[15]", "result": 0, "unit": "%"}, {"measurement": "Activity", "setting": "[16]", "result": 103, "unit": "%"}, {"measurement": "Activity", "setting": "[17]", "result": "Active"}, {"measurement": "Activity", "setting": "[18]", "result": 100, "unit": "%"}, {"measurement": "Activity", "setting": "[19]", "result": 83, "unit": "%"}, {"measurement": "IC50", "setting": "[20]", "result": 200, "unit": "nM"}, {"measurement": "Activity", "setting": "[21]", "result": 3, "unit": "%"}, {"measurement": "Activity", "setting": "[22]", "result": "Active"}, {"measurement": "Activity", "setting": "[23]", "result": 100, "unit": "%"}, {"measurement": "inhibition at 10 µM", "setting": "[24]", "result": 50, "unit": "%"}, {"measurement": "Activity", "setting": "[25]", "result": 100, "unit": "%"}, {"measurement": "Activity", "setting": "[26]", "result": 93, "unit": "%"}, {"measurement": "Activity", "setting": "[27]", "result": 92, "unit": "%"}, {"measurement": "Activity", "setting": "[28]", "result": 100, "unit": "%"}, {"measurement": "Activity", "setting": "[29]", "result": 89, "unit": "%"}]}
